Tests used:
HCT116O cells = assay: MTT cytotoxicity assay; assay type: cell-based, human
Experimental: Cytotoxicity assays were performed as described in Mosmann, 1983, J. Immunol. Methods, 65, 55-63, the entire contents of which is incorporated herein by reference. HCT116N and HCT116O cells were plated in 96-well plates at 50,000 cells/well and incubated with rhodium for the durations specified. After incubation with the indicated rhodium complexes, cells were labeled with MTT for 4 hours at 37° C. under 5% CO2 and humidified atmosphere. The resulting formazan crystals were dissolved with solubilizing reagent purchased from Roche according to the manufacturer's instructions. The dissolved formazan was quantified as the absorbance at 570 nm minus the background absorbance at 690 nm. Percent viability was determined as the ratio of the amount of formazan in the treated cells to that of the untreated cells.
In order to elucidate the mechanism of action for the cytotoxicity caused by a metalloinsertor complex of Formula I, the MTT cytotoxicity assay was repeated in the absence and presence of the pan-caspase inhibitor Z-VAD-FMK. This inhibitor works by irreversibly binding to the active site of caspases which participate in the apoptotic pathway. […] The HCT116N and HCT116O cell lines were treated with 0-30 μM of the [Rh(HDPA)2chrysi]^3+ complex for 24-72 hours. […]
In order to determine the mechanism of action for cytotoxicity caused by a metalloinsertor complex of Formula I, the MTT cytotoxicity assay was repeated in conjunction with a panel of poly-ADP ribose polymerase (PARP) inhibitors: DPQ, 3-AB, 4-AN, and ABT-888, as described in Costantino et al., 2001, J. Med. Chem., 44, 3786-3794; Purnell et al., 1980, Biochem. J. 185, 775-777; Banasik et al., 1992, J. Biol. Chem. 267, 1569-1575; and Donawho et al., 2007, Clin. Cancer Res., 13, 2728-2737, the entire contents of all of which are incorporated herein by reference. The HCT116N and HCT116O cell lines were treated with 0 or 20 μM of the [Rh(HDPA)2chrysi]^3+ complex for 72 hours, with or without one of the four inhibitors. The inhibitor 3,4-Dihydro-5[4-(1-piperindinyl)butoxy]-1(2H)-isoquinoline (DPQ) was added to a final concentration of 0, 25, or 50 μM; the inhibitor 3-aminobenzamide (3-AB) was added to a final concentration of 0, 2, or 3 mM; the inhibitor 4-amino-1,8-napthalimide (4-AN) was added to a final concentration of 0, 10, or 20 μM; and the inhibitor 2-((R)-2-Methylpyrrolidin-2-yl)-1H-benzimidazole-4-carboxamide (ABT-888) was added to a final concentration of 0, 5, or 10 μM. […] For example, in the case of the compound DPQ, this difference was 43±2.7% without inhibitor and 0.6±3.0% with inhibitor.

[1] = tested on: HCT116N and HCT116O cells; assay: Cell cycle distribution flow cytometry assay (PI); assay type: cell-based, human; conditions: 20 μM, 24 and 48 hours
Experimental: Cells were harvested from adherent culture by trypsinization and washed with cold PBS. The resultant pellet was resuspended in PBS (chilled to 4° C.), and ice-cold ethanol was added dropwise to a final concentration of 70% (v/v), with continuous gentle agitation. Cells were fixed at 4° C. for 30 minutes and stored for up to one week. Prior to analysis, the fixed cells in 70% ethanol were diluted 1:3 in cold PBS and centrifuged at 1,400×g for 5 minutes. The resultant pellet was washed twice and resuspended in ice-cold PBS. Ribonuclease was added to a final concentration of 30 μg/mL and the cells were incubated overnight at 4° C. The next day propidium iodide was added to a final concentration of 20 μg/mL and cells were analyzed by flow cytometry. Data analysis was performed using the FloJo software package (v 8.7.1).

[Rh(HDPA)2chrysi]^3+
caspase dependence of the selective cell death (HCT116O cells; MTT with or without Z-VAD-FMK): caspase-independent
number of viable HCT116O cells, % of untreated controls (HCT116O cells; MTT, 20 μM, 72 hours): 37±4.4%
difference between percentage of viable HCT116N cells and percentage of viable HCT116O cells, with DPQ (HCT116O cells; MTT, 20 μM, 72 hours, with PARP inhibitor DPQ): 0.6±3.0%
difference between percentage of viable HCT116N cells and percentage of viable HCT116O cells (HCT116O cells; MTT, 20 μM, 72 hours, without inhibitor): 43±2.7%
cell viability HCT116O with caspase inhibitor (HCT116O cells; MTT, 30 μM metal complex, 72 hours, with Z-VAD-FMK at 20 M (so in the source)): 9.8±7.8%
cell viability HCT116O (HCT116O cells; MTT, 30 μM metal complex, 72 hours, without inhibitor): 9.7±4.4%
toxicity in MMR-deficient HCT116O versus HCT116N cells at 48 hours (HCT116O cells; MTT, 48 hours): enhance toxicity in the MMR-deficient HCT116O cells
cell viability HCT116O without inhibitor (40 μM caspase inhibitor experiment) (HCT116O cells; MTT, rhodium alone, control arm of the 40 μM Z-VAD-FMK experiment): 16±10%
cell viability HCT116O with caspase inhibitor 40 μM (HCT116O cells; MTT, rhodium plus Z-VAD-FMK 40 μM): 28±3.7%
effect on the cell cycle [1]: disruption of the cell cycle
